Assay results from PubChem BioAssay (NCI).
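Test compounds were applied to cells in 96-well plates for 48 hours at 5 doses. TGI is the concentration that stops growth completely.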

Experiments:
Assay in all cases: NCI anticancer screen, dose series, 48 h
[1] = system: SNB-19 CNS
[2] = system: MDA-N
[3] = system: CAKI-1 renal
[4] = system: ACHN renal
[5] = system: MOLT-4 leukemia
[6] = system: CCRF-CEM leukemia
[7] = system: UO-31 renal
[8] = system: NCI-H522 lung
[9] = system: A549 NSCLC
[10] = system: 786-0 renal
[11] = system: UACC-257 melanoma
[12] = system: M14 melanoma
[13] = system: MALME-3M melanoma
[14] = system: K-562 leukemia
[15] = system: RXF 393 renal
[16] = system: SNB-75 CNS
[17] = system: MDA-MB-231 breast
[18] = system: SF-268 CNS
[19] = system: A498 renal
[20] = system: HS 578T breast
[21] = system: SK-MEL-2 melanoma
[22] = system: IGROV1 ovarian
[23] = system: LOX IMVI melanoma
[24] = system: SK-MEL-5 melanoma
[25] = system: MCF7 breast
[26] = system: SF-295 CNS
[27] = system: HOP-92 NSCLC
[28] = system: PC-3 prostate
[29] = system: SK-MEL-28 melanoma
[30] = system: OVCAR-4 ovarian
[31] = system: DU-145 prostate
[32] = system: HCT-116 colon
[33] = system: COLO 205 colon
[34] = system: SF-539 CNS
[35] = system: UACC-62 melanoma
[36] = system: OVCAR-8 ovarian
[37] = system: U251 CNS
[38] = system: HCT-15 colon
[39] = system: SK-OV-3 ovarian
[40] = system: NCI/ADR-RES ovarian
[41] = system: NCI-H226 lung
[42] = system: NCI-H23 lung
[43] = system: HCC-2998 colon
[44] = system: EKVX NSCLC
[45] = system: SR leukemia
[46] = system: TK-10 renal
[47] = system: HT29 colon
[48] = system: SW-620 colon
[49] = system: HL-60(TB) leukemia
[50] = system: RPMI-8226 leukemia
[51] = system: OVCAR-5 ovarian
[52] = system: NCI-H460 lung
[53] = system: HOP-62 NSCLC
[54] = system: BT-549 breast
[55] = system: SN12C renal
[56] = system: T-47D breast
[57] = system: MDA-MB-435
[58] = system: KM12 colon
[59] = system: OVCAR-3 ovarian

SMILES: ClCc1nn(-c2ccccc2)c(CCl)c1CCl
- TGI [1]: 19.9 µM
- TGI [2]: 8.88 µM
- TGI [3]: 20.6 µM
- TGI [4]: 7.62 µM
- TGI [5]: 6.76 µM
- TGI [6]: 6.02 µM
- TGI [7]: 11.5 µM
- TGI [8]: 10.2 µM
- TGI [9]: 24.5 µM
- TGI [10]: 8.77 µM
- TGI [11]: 25 µM
- TGI [12]: 10.3 µM
- TGI [13]: 9.88 µM
- TGI [14]: 6.34 µM
- TGI [15]: 15.3 µM
- TGI [16]: 11.4 µM
- TGI [17]: 12.1 µM
- TGI [18]: 17.4 µM
- TGI [19]: 24.5 µM
- TGI [20]: 58.3 µM
- TGI [21]: 15.5 µM
- TGI [22]: 18.2 µM
- TGI [23]: 4.29 µM
- TGI [24]: 8.43 µM
- TGI [25]: 16 µM
- TGI [26]: 26.5 µM
- TGI [27]: 9.85 µM
- TGI [28]: 18.4 µM
- TGI [29]: 12.4 µM
- TGI [30]: 7.61 µM
- TGI [31]: 16.6 µM
- TGI [32]: 7.54 µM
- TGI [33]: 8.95 µM
- TGI [34]: 6.34 µM
- TGI [35]: 14.4 µM
- TGI [36]: 6.17 µM
- TGI [37]: 6.05 µM
- TGI [38]: 9.06 µM
- TGI [39]: 23.3 µM
- TGI [40]: > 100 µM
- TGI [41]: 13.9 µM
- TGI [42]: 14.3 µM
- TGI [43]: 24.7 µM
- TGI [44]: 8.97 µM
- TGI [45]: 4.41 µM
- TGI [46]: 21.3 µM
- TGI [47]: 9.9 µM
- TGI [48]: 11.4 µM
- TGI [49]: 6.78 µM
- TGI [50]: 7.18 µM
- TGI [51]: 15.2 µM
- TGI [52]: 12.5 µM
- TGI [53]: 33.8 µM
- TGI [54]: 18.3 µM
- TGI [55]: 11.1 µM
- TGI [56]: 16.4 µM
- TGI [57]: 6.6 µM
- TGI [58]: 11.9 µM
- TGI [59]: 11 µM

SMILES: CC(=O)NCCC1CN(C(=O)/C=C\I)c2ccccc21 (stereo not drawn)
- TGI [1]: 46.9 µM
- TGI [2]: 26.3 µM
- TGI [3]: 3.32 µM
- TGI [4]: 28.5 µM
- TGI [5]: 13.7 µM
- TGI [6]: 13.3 µM
- TGI [7]: 18.8 µM
- TGI [8]: 3.29 µM
- TGI [9]: 31.4 µM
- TGI [10]: 24.7 µM
- TGI [11]: 26.7 µM
- TGI [12]: 24 µM
- TGI [13]: 28.5 µM
- TGI [14]: > 40.3 µM
- TGI [15]: 26.3 µM
- TGI [16]: 33 µM
- TGI [17]: 8.14 µM
- TGI [18]: 31.6 µM
- TGI [19]: 41.7 µM
- TGI [20]: 67.6 µM
- TGI [21]: 29.7 µM
- TGI [22]: 28.4 µM
- TGI [23]: 11.1 µM
- TGI [24]: 16 µM
- TGI [25]: 13.4 µM
- TGI [26]: 31.5 µM
- TGI [27]: 46.3 µM
- TGI [28]: 24 µM
- TGI [29]: 31.6 µM
- TGI [30]: 39 µM
- TGI [31]: 33.1 µM
- TGI [32]: 28.8 µM
- TGI [33]: 23.9 µM
- TGI [34]: 17.8 µM
- TGI [35]: 28.3 µM
- TGI [36]: 35.8 µM
- TGI [37]: 25.9 µM
- TGI [38]: 22.1 µM
- TGI [39]: 34.9 µM
- TGI [40]: > 61.7 µM
- TGI [41]: 27.6 µM
- TGI [42]: 35.2 µM
- TGI [43]: 28.5 µM
- TGI [44]: 34 µM
- TGI [45]: > 65.9 µM
- TGI [46]: 19.5 µM
- TGI [47]: 24 µM
- TGI [48]: 38.6 µM
- TGI [49]: 8.49 µM
- TGI [50]: 9.5 µM
- TGI [51]: 30.2 µM
- TGI [52]: 22.3 µM
- TGI [53]: 23.3 µM
- TGI [54]: 38.2 µM
- TGI [55]: 13.1 µM
- TGI [56]: 37.6 µM
- TGI [57]: 30.8 µM
- TGI [58]: 18.7 µM
- TGI [59]: 28.2 µM
